# In patent US20250002463A1, “NEW SALT FORMS OF AMILORIDE AND ITS DERIVATIVES FOR PHARMACEUTICAL USE” (PSOMRI Holding AB, priority 2021, published 2025):
# Several values for one entry are separate records, joined by “and”; a condition that tells them apart may be missing. Equal values may be shown once.
# What was measured:
# [1] = Physical stability under Accelerated Aging Conditions (AAC, 40° C./75% RH, 2 days), HT-XRPD; details: for Physically stable after AAC: Example 1; for Physical Stability: AAC 40° C./75% RH, 2 days, re-analyzed by HT-XRPD
# [2] = Hygroscopicity by Dynamic Vapor Sorption (DVS); type: physicochemical; details: for classification of hygroscopic behaviour: based on water vapour uptake at 25° C./80% RH
# Protocol: The hygroscopic behaviour of the salts was evaluated through Dynamic Vapor Sorption (DVS) measurements with an RH profile 40-95-0-40% at 25° C. and a dm/dt of 0.002. The classification of the hygroscopic behaviour is based on the water vapour uptake at 25° C./80% RH in first adsorption cycle of sorption isotherm.
# [3] = Polymorphism: solid forms found in salt screen by HT-XRPD; type: physicochemical; details: Example 1 salt screen in MeOH, DME, THF
# Protocol: (§1) The precipitated solids were analyzed by high throughput X-ray powder diffractometry (HT XRPD). Liquid phases (both solutions and mother liquors) were evaporated at ambient conditions and the residual solids were analyzed by HT XRPD.
# The salt screen experiments were carried out in methanol (MeOH), 1,2-dimethoxyethane (DME) and tetrahydrofuran (THF).
# [4] = Crystallinity of salt forms by HT-XRPD; type: physicochemical; details: salt screen solid forms
# Protocol: as §1
# XRPD patterns were obtained using the Ardena T2 high-throughput XRPD set-up. The plates were mounted on a Bruker General Area Detector Diffraction System (GADDS) equipped with a VÅNTEC-500 gas area detector corrected for intensity and geometric variations. The calibration of the measurement accuracy (peaks position) was performed using NIST SRM1976 standard (Corundum).
# No background subtraction or curve smoothing was applied to the XRPD patterns.
# [5] = Aqueous solubility at RT, Example 2 (water aliquot addition up to 1600 μL); type: physicochemical; details: for dissolution in water: water aliquots up to 1600 μL; for dissolution in water after heating: suspension in 1600 μL water heated to 50° C. for 15 min
# Protocol: Aqueous solubility was determined for the anhydrous and hydrated salt forms, as well as for the salts found after the stability study. Aliquots of water were added to the solid salts until dissolution occurred or 1600 μL of water was added. The lactate salt was taken along in the solubility studies as a reference. […] The results (in mg/mL free base dissolved for better comparison between salt forms) of the solubility determination performed in water are reported in Table 9.
# Upon completion of the solubility determination, the remaining solids were separated from the liquid phases and allowed to air dry. Dried solids were analyzed by HT-XRPD.
# physchem = test: physchem
# Protocol: The aqueous solubility of the salts was estimated qualitatively by the solvent aliquot addition method. Aliquots of water up to 500-600 μL were added to approximately 5 mg of salt. The solubility of the free base was also estimated.
# The suspensions were let equilibrating at room temperature for 24 h. Afterwards, solids were separated from the liquid phases. The liquid phases were filtered and analyzed by HPLC to determine the solubility. The pH of solutions/mother liquors was also measured.
# Suspensions of the two salts were prepared in water with a concentration of 9-10 mg/mL. The mixtures were let equilibrating at RT for 24 h. Afterwards, solids were separated from the liquid phases. The liquid phases were filtered and analyzed by HPLC to determine the solubility. The pH of mother liquors was also measured.
# [6] = Intrinsic dissolution rate (rotating disc, μDiss) in water and FaSSIF; type: physicochemical; details: for IDR (mg/cm^2/min) Individual: single disc
# Protocol: Rotating disc intrinsic dissolution determinations were performed with a μDiss apparatus (Pion, USA) equipped with 6 independent glass fiber probes each connected to a diode area. Before the start of the experiment the probes were calibrated using the spectrum of a Mercury 362 nm pen-ray lamp. Discs were prepared in a passivated aluminum dye with a mini-IDR press (Heath Scientific, UK).
# Six dilutions of benzamil lactate salt were prepared in the dissolution media in the range from 0 to 0.5 mg/mL, and the solutions were stirred with a cross-shaped magnetic stirrer. These dilutions were used for the calibration curve which is used for the calculation of the amount of benzamil in solution. Moreover, the solutions were used to select the wavelength at which the samples were to be measured and to select the proper path length.
# The dyes were placed in their Teflon holder magnet stirrer and placed into 20 mL glass vials. Before to the sample measurement, a blank of each media was taken in the respective channel. The experiment started by the gentle addition of the pre-warmed dissolution media. Vials were incubated at 37° C. under continuous stirring at 100 rpm for a maximum of 4 h. UV absorption was measured with the in-line probes at regular intervals. Upon completion of the experiment the pH of the solution was determined. Concentrations of API in solution were calculated with use of the calibration curve and plotted against time. Dissolution rates were calculated over the linear parts of the curves. All dissolution rate experiments were done in triplicate except for TFA1 which were done in duplicate due to the lack of material.
# [7] = Kinetic and thermodynamic solubility in water at 37° C. (1 h and 18 h, UPLC)
# [8] = Physio-chemical stability study, open container 25° C./60% RH and 40° C./75% RH (UPLC, TGMS, HT-XRPD); type: physicochemical; details: for UPLC 1 week / UPLC 3 weeks / UPLC 3 days: chemical purity
# Protocol: Open container at 25° C. and 60% RH • 2. Open container at 40° C. and 75% RH
# [9] = Example 2, 40° C./75% RH for 2 days
# [10] = water, 37° C., 30 mg/ml suspension
# [11] = open container 25° C. and 60% RH
# [12] = open container 40° C. and 75% RH
smiles,measurement,setting,value
N=C(NCc1ccccc1)NC(=O)c1nc(Cl)c(N)nc1N.O=C(O)c1ccccc1 [BNZ1],Physically stable after AAC,[1]; 40° C./75% RH for 2 days,physically stable and Yes
same,water vapour uptake,"[2]; 25° C./80% RH, first adsorption cycle",0.1%
same,classification of hygroscopic behaviour,[2],non hygroscopic
same,Polymorphism,[3],Yes
N=C(NCc1ccccc1)NC(=O)c1nc(Cl)c(N)nc1N.O=C(O)c1ccccc1 [BNZ2],Physically stable after AAC,[1]; 40° C./75% RH for 2 days,physically stable and Yes
same,classification of hygroscopic behaviour,[2],slightly hygroscopic
same,Polymorphism,[3],Yes
CCCC(=O)O.NC(=NC(=O)c1nc(Cl)c(N)nc1N)NCc1ccccc1 [BUT1],Crystallinity,[4],Good
same,Physical Stability,[1],Stable
same,physical stability upon exposure to AAC,[1]; [9],physically stable
same,dissolution in water,[5]; RT,Full dissolution
NC(=NC(=O)c1nc(Cl)c(N)nc1N)NCc1ccccc1.O=CO [FOR3],Crystallinity,[4],Good
same,dissolution in water after heating,[5],dissolved
Br.N=C(NCc1ccccc1)NC(=O)c1nc(Cl)c(N)nc1N [HBR1],Crystallinity,[4],Moderate
same,Physical Stability,[1],Stable
same,physical stability upon exposure to AAC,[1]; [9],physically stable
same,dissolution in water after heating,[5],dissolved
NC(=NC(=O)c1nc(Cl)c(N)nc1N)NCc1ccccc1.O=C(O)CC(=O)O [MAO1],Crystallinity,[4],Good
same,Physical Stability,[1],Stable
same,physical stability upon exposure to AAC,[1]; [9],physically stable
same,dissolution in water after heating,[5],dissolved
CS(=O)(=O)O.NC(=NC(=O)c1nc(Cl)c(N)nc1N)NCc1ccccc1 [MES1],Crystallinity,[4],Good
same,Physical Stability,[1],Stable
same,physical stability upon exposure to AAC,[1]; [9],physically stable
same,aqueous solubility compared with starting material (LAC1),[5]; RT,better solubility value than the starting material (LAC1)
same,behaviour after full dissolution in water,[5]; RT,precipitation was observed after full dissolution
same,dissolution in water,[5]; RT,Full dissolution
same,behaviour in repeated aqueous solubility determination,"[5]; aiming for 50 mg/ml, RT",quickly dissolved at RT and after 15 min it crashed out again as a white solid
Cl.NC(=NC(=O)c1nc(Cl)c(N)nc1N)NCc1ccccc1 [Mono-HCl (ref)],Concentration FB,physchem,2400 to 3000 µg/mL
NC(=NC(=O)c1nc(Cl)c(N)nc1N)NCc1ccccc1.O=[N+]([O-])O [NIT5],classification of hygroscopic behaviour,[2],slightly hygroscopic
same,Polymorphism,[3],Yes
NC(=NC(=O)c1nc(Cl)c(N)nc1N)NCc1ccccc1.O=P(O)(O)O [PHO2],Physically stable after AAC,[1]; 40° C./75% RH for 2 days,physically stable and Yes
same,classification of hygroscopic behaviour,[2],slightly hygroscopic
same,Polymorphism,[3],Yes
CCC(=O)O.NC(=NC(=O)c1nc(Cl)c(N)nc1N)NCc1ccccc1 [PRO2],Crystallinity,[4],Moderate
same,dissolution in water after heating,[5],dissolved
NC(=NCc1ccccc1)NC(=O)c1nc(Cl)c(N)nc1N.O=C(O)C(F)(F)F [TFA2],Physically stable?,"[1]; AAC, 2 days at 40° C. and 75% RH, solids from thermocycling",Yes
same,physical stability upon exposure to AAC,"[1]; Example 3 thermocycling solids, 2 days at 40° C. and 75% RH",physically stable
same,IDR (mg/cm^2/min) Average,"[6]; FaSSIF, 37° C., 100 rpm",0.14 ± 0.004 mg/cm^2/min
same,IDR (mg/cm^2/min) Individual,"[6]; FaSSIF, 37° C., 100 rpm",0.145 mg/cm^2/min and 0.143 mg/cm^2/min and 0.138 mg/cm^2/min
same,IDR (mg/cm^2/min) Average,"[6]; Water, 37° C., 100 rpm",0.13 ± 0.1 mg/cm^2/min
same,IDR (mg/cm^2/min) Individual,"[6]; Water, 37° C., 100 rpm",0.116 mg/cm^2/min and 0.143 mg/cm^2/min and 0.130 mg/cm^2/min
same,state of tablet,"[6]; after about 4 h, 37° C.",still not completely dissolved
same,IDR difference to LAC1,[6]; in FaSSIF,about 4 fold
same,Intrinsic Dissolution Rate (IDR),"[6]; water, 37° C., 100 rpm, linear part (LAC1 1 to 36 min; TFA 10-100 min)",0.13±0.01 mg/cm^2/min
same,XRPD 1 h Amb.,"[7]; residual solid after 1 h in water at 37° C., ambient-dried",TFA2
same,XRPD 1 h Vac.,"[7]; residual solid after 1 h in water at 37° C., vacuum-dried",TFA2
same,XRPD 18 h Amb.,"[7]; residual solid after 18 h in water at 37° C., ambient-dried",TFA2
same,XRPD 18 h Vac.,"[7]; residual solid after 18 h in water at 37° C., vacuum-dried",TFA2
same,pH after 10 min,[7]; [10],6.0
same,pH after 1 h,[7]; [10],6.2
same,Solubility (mg/mL) 1 h,"[7]; water, 37° C., 1 h (kinetic), UPLC",2.6 mg/mL
same,Solubility (mg/mL) 18 h,"[7]; water, 37° C., 18 h (thermodynamic), UPLC",1.6 mg/mL
same,UPLC t0,[8]; chemical purity at start of stability study,99.1% and 100%
same,UPLC 1 week,[8]; [11],99.9% and 100%
same,UPLC 3 weeks,[8]; [11],100%
same,UPLC 3 days,[8]; [11],99.9% and 100%
same,UPLC 1 week,[8]; [12],100%
same,UPLC 3 weeks,[8]; [12],100%
same,UPLC 3 days,[8]; [12],99.9% and 100%
same,physical and chemical stability,[8]; incubation for 3 weeks at 25° C./60% RH and 40° C./75% RH,physically and chemically stable
same,TGMS 1 week,[8]; [11],0.1% water and <0.1 % water
same,XRPD 1 week,[8]; [11],TFA2 and TFA1
same,TGMS 3 weeks,[8]; [11],<0.1% water
same,XRPD 3 weeks,[8]; [11],TFA2
same,XRPD 3 days,[8]; [11],TFA2 and TFA1
same,TGMS 1 week,[8]; [12],0.1% water and <0.1 % water
same,XRPD 1 week,[8]; [12],TFA2 and TFA1
same,TGMS 3 weeks,[8]; [12],<0.1% water
same,XRPD 3 weeks,[8]; [12],TFA2
same,XRPD 3 days,[8]; [12],TFA2 and TFA1
same,XRPD t0,[8]; start of stability study,TFA2 and TFA1
Cc1ccc(S(=O)(=O)O)cc1.NC(=NC(=O)c1nc(Cl)c(N)nc1N)NCc1ccccc1 [TOS1],Physically stable after AAC,[1]; 40° C./75% RH for 2 days,physically stable and Yes
same,classification of hygroscopic behaviour,[2],slightly hygroscopic
same,Polymorphism,[3],Unclear
